Laboratory results from ChEMBL document CHEMBL1128282 (J Med Chem, 1995).
Calls of active or inactive are those of the source. No cut-off for these calls is given here.

Tests used:
Melatonin receptor [1] = molecular target: T1, Melatonin receptor (Gallus gallus, UniProt P49288+P51050+P49285); test: Binding affinity in chicken brain membranes by using [2-125I]melatonin in a competition radioligand binding assay; assay type: cell membranes, Membrane
Xenopus laevis [2] = species: Xenopus laevis; test: Pigment aggregation response in Xenopus laevis Melanophores at 10e-5 M of concentration; Antagonist; assay type: functional; conditions: filed as antagonist
Xenopus laevis [3] = species: Xenopus laevis; test: Pigment aggregation response in Xenopus laevis Melanophores at 10e-6 M of concentration; Agonist; assay type: functional; conditions: filed as agonist
Xenopus laevis [4] = species: Xenopus laevis; test: Pigment aggregation response in Xenopus laevis Melanophores at 10e-7 M of concentration; Agonist; assay type: functional; conditions: filed as agonist
Xenopus laevis [5] = species: Xenopus laevis; test: Pigment aggregation response in Xenopus laevis Melanophores; Antagonist; assay type: functional; conditions: filed as antagonist
Xenopus laevis [6] = species: Xenopus laevis; test: Pigment aggregation response in Xenopus laevis Melanophores at 10e-8 M of concentration; Agonist response; assay type: functional; conditions: filed as agonist
Xenopus laevis [7] = species: Xenopus laevis; test: Pigment aggregation response in Xenopus laevis Melanophores at 10e-5 M of concentration; No Agonist/antagonist response; assay type: functional
Xenopus laevis [8] = species: Xenopus laevis; test: Pigment aggregation response in Xenopus laevis Melanophores at 10e-5 M of concentration; No Agonist response; assay type: functional
Xenopus laevis [9] = species: Xenopus laevis; test: Pigment aggregation response in Xenopus laevis Melanophores at 10e-5 M of concentration; No agonist response; assay type: functional
Xenopus laevis [10] = species: Xenopus laevis; test: Pigment aggregation response in Xenopus laevis Melanophores at 10e-5 M of concentration; Agonist; assay type: functional; conditions: filed as agonist
Melatonin receptor [11] = molecular target: T1, Melatonin receptor; test: Binding affinity in chicken brain membranes by using [2-125I]melatonin in a competition radioligand binding assay.; assay type: cell membranes, Membrane

SMILES	Ki (Melatonin receptor [1])	Response (Xenopus laevis [3])	also measured
COc1ccc2[nH]c(-c3ccccc3)c(CCNC(=O)C3CC3)c2c1	0.3047 nM	–	–
COc1ccc2[nH]c(-c3ccccc3)c(CCNC(=O)C3CCC3)c2c1	2.7 nM	Agonist	–
COc1ccc2[nH]c(-c3ccccc3)c(CCNC(=O)C34C[C@H]5C[C@@H](C3)C[C@@H](C4)C5)c2c1	1100 nM	Agonist	–
COc1ccc2[nH]cc(CCNC(C)=O)c2c1	–	–	Response (Xenopus laevis [6]): Agonist
CCC(=O)NCCc1c(-c2ccccc2)[nH]c2ccc(OC)cc12	0.0466 nM	–	Response (Xenopus laevis [6]): Agonist
COc1ccc2[nH]c(-c3ccccc3)c(CCNC(=O)C(F)(F)F)c2c1	0.019 nM	–	–
O=C(CCc1ccccc1)NCCc1c(-c2ccccc2)[nH]c2ccccc12	7000 nM	–	Response (Xenopus laevis [7]): inactive
O=C(NCCc1c(-c2ccccc2)[nH]c2ccccc12)C1CCCC1	633 nM	–	Response (Xenopus laevis [5]): Antagonist
Cn1c(-c2ccccc2)c(CCNC(=O)C2CCC2)c2ccccc21	726 nM	–	Response (Xenopus laevis [2]): Antagonist
CC(=O)NCCc1c(-c2ccccc2)n(C)c2ccccc12	63 nM	Agonist	–
O=C(NCCc1c(-c2ccccc2)[nH]c2ccccc12)C12C[C@H]3C[C@@H](C1)C[C@@H](C2)C3	1100 nM	–	Response (Xenopus laevis [7]): inactive
COCC(CNC(=O)C1CCC1)c1c(-c2ccccc2)n(C)c2ccccc12 (stereo not given)	659 nM	–	Response (Xenopus laevis [2]): Antagonist
[N-]=[N+]=NCC(=O)NCCc1c(-c2ccccc2)[nH]c2ccccc12	410 nM	Agonist	–
COCC(CNC(C)=O)c1c(-c2ccccc2)n(C)c2ccccc12 (stereo not given)	–	–	Ki (Melatonin receptor [11]): 350 nM; Response (Xenopus laevis [2]): Antagonist
COc1ccc2[nH]c(-c3ccccc3)c(CCNC(=O)CCc3ccccc3)c2c1	263 nM	Agonist	–

Second part, led by results:

Ki (Melatonin receptor [1])	SMILES	Response (Xenopus laevis [3])	also measured
222 nM	CC(CNC(=O)C1CCC1)c1c(-c2ccccc2)n(C)c2ccccc12 (stereo not given)	–	Response (Xenopus laevis [2]): Antagonist
148 nM	O=C(NCCc1c(-c2ccccc2)[nH]c2ccccc12)C(F)(F)F	Agonist	–
5.9 nM	CC(=O)NCC(C)c1c(-c2ccccc2)n(C)c2ccccc12 (stereo not given)	–	Response (Xenopus laevis [4]): Agonist
100 nM	CC(=O)NCCc1c(-c2ccccc2)[nH]c2ccccc12	Agonist	–
213 nM	O=C(NCCc1c(-c2ccccc2)[nH]c2ccccc12)C1CC1	–	Response (Xenopus laevis [5]): Antagonist
0.0558 nM	CCCC(=O)NCCc1c(-c2ccccc2)[nH]c2ccc(OC)cc12	–	–
0.0596 nM	COc1ccc2[nH]c(-c3ccccc3)c(CCNC(C)=O)c2c1	–	Response (Xenopus laevis [6]): Agonist
216 nM	COc1ccc2[nH]c(-c3ccccc3)c(CCNC(=O)C3CCCCC3)c2c1	Agonist	–
55 nM	O=C(CBr)NCCc1c(-c2ccccc2)[nH]c2ccccc12	Agonist	–
1550 nM	O=C(NCCc1c(-c2ccccc2)[nH]c2ccccc12)C1CCCCC1	–	Response (Xenopus laevis [5]): Antagonist
32.8 nM	COc1ccc2[nH]c(-c3ccccc3)c(CCNC(=O)C3CCCC3)c2c1	Agonist	–
70 nM	CCC(=O)NCCc1c(-c2ccccc2)[nH]c2ccccc12	Agonist	–
565 nM	O=C(NCCc1c(-c2ccccc2)[nH]c2ccccc12)C1CCC1	–	Response (Xenopus laevis [5]): Antagonist
6500 nM	O=C(NCCc1c(-c2ccccc2)[nH]c2ccccc12)C(F)(F)C(F)(F)F	–	Response (Xenopus laevis [8]): inactive
1900 nM	CC(Br)C(=O)NCCc1c(-c2ccccc2)[nH]c2ccccc12 (stereo not given)	–	Response (Xenopus laevis [9]): inactive
112 nM	CCCC(=O)NCCc1c(-c2ccccc2)[nH]c2ccccc12	Agonist	–
154 nM	CCn1c(-c2ccccc2)c(CCNC(C)=O)c2ccccc21	–	Response (Xenopus laevis [10]): Agonist
